Data reported in the NIST ThermoML archive (doi:10.1021/je800242n).
Values joined by “and” are separate entries in the source; they are usually repeats but may differ in a detail not shown here. Equal entries are not always repeated. ± gives the expanded uncertainty stated by the source.

Settings: Crystal

[F][Zn][F] [zinc fluoride]
Settings | vapor or sublimation pressure
846 K | 1.2e-05 ± 2.7e-06 kPa
852 K | 1.2e-05 ± 1.2e-06 kPa
853 K | 1.23e-05 ± 1.3e-06 kPa
854 K | 1.78e-05 ± 1.8e-06 kPa
859 K | 1.23e-05 ± 2.7e-06 kPa
865 K | 2.4e-05 ± 4.7e-06 kPa
867 K | 1.82e-05 ± 3.6e-06 kPa and 2.4e-05 ± 3.9e-06 kPa
871 K | 2.45e-05 ± 4.7e-06 kPa
875 K | 2.45e-05 ± 5.9e-06 kPa
876 K | 3.55e-05 ± 7.8e-06 kPa and 4.79e-05 ± 8.1e-06 kPa
880 K | 3.63e-05 ± 9.2e-06 kPa and 3.55e-05 ± 9.2e-06 kPa
883 K | 4.57e-05 ± 5.8e-06 kPa and 3.63e-05 ± 4.9e-06 kPa
885 K | 4.57e-05 ± 9.9e-06 kPa
886 K | 3.63e-05 ± 9.2e-06 kPa
887 K | 4.57e-05 ± 9e-06 kPa and 6.03e-05 ± 1e-05 kPa and 4.9e-05 ± 9.2e-06 kPa
888 K | 4.57e-05 ± 7.9e-06 kPa
889 K | 7.24e-05 ± 1e-05 kPa
891 K | 6.03e-05 ± 1.4e-05 kPa
893 K | 6.17e-05 ± 1.1e-05 kPa
895 K | 6.76e-05 ± 7e-06 kPa and 4.9e-05 ± 5.4e-06 kPa
896 K | 6.76e-05 ± 1.1e-05 kPa and 6.17e-05 ± 1.1e-05 kPa
898 K | 6.76e-05 ± 1.4e-05 kPa and 8.32e-05 ± 1.5e-05 kPa and 7.41e-05 ± 1.4e-05 kPa
900 K | 6.76e-05 ± 7.3e-06 kPa
902 K | 8.51e-05 ± 1.4e-05 kPa and 8.32e-05 ± 1.3e-05 kPa
903 K | 9.12e-05 ± 1.5e-05 kPa and 0.000107 ± 1.6e-05 kPa
904 K | 7.41e-05 ± 1.4e-05 kPa
905 K | 7.41e-05 ± 2.2e-05 kPa
906 K | 9.12e-05 ± 1.9e-05 kPa and 0.000107 ± 2.1e-05 kPa
909 K | 0.000102 ± 3.4e-05 kPa and 9.77e-05 ± 3.4e-05 kPa
910 K | 0.00012 ± 3.3e-05 kPa
911 K | 0.000115 ± 2.9e-05 kPa
912 K | 9.77e-05 ± 2.3e-05 kPa
913 K | 0.000138 ± 2.5e-05 kPa and 0.000123 ± 2.4e-05 kPa
914 K | 0.000155 ± 2.7e-05 kPa and 0.00011 ± 2.5e-05 kPa
916 K | 0.000158 ± 3.1e-05 kPa and 0.000166 ± 3.2e-05 kPa
919 K | 0.000158 ± 2.5e-05 kPa and 0.000135 ± 2.4e-05 kPa
920 K | 0.000166 ± 1.9e-05 kPa
921 K | 0.000182 ± 3.4e-05 kPa
922 K | 0.000135 ± 2e-05 kPa
923 K | 0.000204 ± 2.6e-05 kPa and 0.000148 ± 2e-05 kPa
924 K | 0.000204 ± 3.9e-05 kPa
925 K | 0.000182 ± 3.9e-05 kPa
926 K | 0.000229 ± 3.7e-05 kPa
928 K | 0.000204 ± 2.1e-05 kPa and 0.000251 ± 2.5e-05 kPa
930 K | 0.000251 ± 5.1e-05 kPa and 0.000195 ± 5e-05 kPa
932 K | 0.000263 ± 4.1e-05 kPa
933 K | 0.000195 ± 7e-05 kPa and 0.000275 ± 7.3e-05 kPa
934 K | 0.000295 ± 5.1e-05 kPa and 0.000257 ± 4.8e-05 kPa and 0.000209 ± 4.5e-05 kPa
937 K | 0.000316 ± 3.3e-05 kPa
938 K | 0.000372 ± 5.1e-05 kPa
939 K | 0.000316 ± 5.2e-05 kPa
940 K | 0.000339 ± 5.3e-05 kPa
941 K | 0.000372 ± 4.7e-05 kPa and 0.000282 ± 3.8e-05 kPa
942 K | 0.000282 ± 5.4e-05 kPa and 0.000355 ± 5.7e-05 kPa
943 K | 0.000282 ± 3.8e-05 kPa
945 K | 0.000407 ± 6.9e-05 kPa
946 K | 0.00038 ± 5.7e-05 kPa
948 K | 0.000437 ± 0.00011 kPa
950 K | 0.000479 ± 8.3e-05 kPa and 0.000513 ± 8.5e-05 kPa
951 K | 0.000479 ± 7.2e-05 kPa and 0.000389 ± 6.6e-05 kPa
952 K | 0.000363 ± 7.4e-05 kPa and 0.000501 ± 8.2e-05 kPa
955 K | 0.000575 ± 9.3e-05 kPa
956 K | 0.000513 ± 8.9e-05 kPa and 0.000417 ± 8.4e-05 kPa
958 K | 0.000575 ± 8.4e-05 kPa
959 K | 0.000589 ± 9.2e-05 kPa
960 K | 0.000661 ± 6.6e-05 kPa
961 K | 0.000661 ± 0.00013 kPa and 0.000525 ± 0.00012 kPa
962 K | 0.000692 ± 0.00011 kPa
963 K | 0.000525 ± 9e-05 kPa and 0.000692 ± 0.0001 kPa
965 K | 0.000589 ± 0.0001 kPa
966 K | 0.000794 ± 0.00012 kPa and 0.000692 ± 0.00012 kPa
968 K | 0.000759 ± 0.00019 kPa
969 K | 0.000851 ± 0.00012 kPa and 0.000912 ± 0.00012 kPa
970 K | 0.000871 ± 0.00016 kPa and 0.000708 ± 0.00015 kPa
972 K | 0.000912 ± 0.00013 kPa
973 K | 0.000955 ± 0.00015 kPa
974 K | 0.000741 ± 0.00014 kPa
975 K | 0.000912 ± 0.00014 kPa and 0.000813 ± 0.00014 kPa
976 K | 0.00107 ± 0.00015 kPa
978 K | 0.00105 ± 0.00011 kPa and 0.00123 ± 0.00012 kPa
979 K | 0.00115 ± 0.00017 kPa and 0.000933 ± 0.00015 kPa
980 K | 0.00115 ± 0.00023 kPa
982 K | 0.0012 ± 0.00018 kPa
983 K | 0.000977 ± 0.0002 kPa and 0.00132 ± 0.00022 kPa
984 K | 0.00105 ± 0.00017 kPa
986 K | 0.00145 ± 0.00021 kPa and 0.00126 ± 0.0002 kPa
988 K | 0.00148 ± 0.0002 kPa and 0.00158 ± 0.00021 kPa
989 K | 0.00148 ± 0.00033 kPa and 0.00138 ± 0.00032 kPa and 0.00126 ± 0.00032 kPa
991 K | 0.00158 ± 0.00024 kPa
993 K | 0.00132 ± 0.00019 kPa and 0.00135 ± 0.00019 kPa
994 K | 0.00178 ± 0.00026 kPa
996 K | 0.00191 ± 0.00028 kPa and 0.00195 ± 0.00028 kPa
997 K | 0.00166 ± 0.00018 kPa
998 K | 0.00182 ± 0.00026 kPa and 0.00214 ± 0.00028 kPa
999 K | 0.00195 ± 0.0002 kPa and 0.00166 ± 0.00017 kPa
1001 K | 0.00209 ± 0.0003 kPa
1003 K | 0.00178 ± 0.00023 kPa
1004 K | 0.00174 ± 0.0002 kPa and 0.00245 ± 0.00026 kPa
1005 K | 0.00251 ± 0.00034 kPa
1006 K | 0.00245 ± 0.00034 kPa
1007 K | 0.00234 ± 0.00024 kPa
1008 K | 0.00219 ± 0.0003 kPa
1009 K | 0.00219 ± 0.00063 kPa and 0.00295 ± 0.00063 kPa
1010 K | 0.00257 ± 0.00044 kPa
1011 K | 0.00269 ± 0.00049 kPa
1013 K | 0.00229 ± 0.00036 kPa and 0.00316 ± 0.00041 kPa and 0.00234 ± 0.00037 kPa
1016 K | 0.00347 ± 0.00047 kPa
1017 K | 0.00324 ± 0.00057 kPa and 0.00295 ± 0.00055 kPa
1019 K | 0.00295 ± 0.00059 kPa
1020 K | 0.00295 ± 0.00059 kPa
1021 K | 0.00347 ± 0.00041 kPa and 0.00339 ± 0.00041 kPa
1022 K | 0.00398 ± 0.00052 kPa and 0.00302 ± 0.00045 kPa
1023 K | 0.00309 ± 0.00048 kPa
1027 K | 0.00407 ± 0.00042 kPa and 0.0038 ± 0.00039 kPa
1031 K | 0.00447 ± 0.0008 kPa and 0.00457 ± 0.00081 kPa and 0.00537 ± 0.00089 kPa
1035 K | 0.00427 ± 0.00091 kPa
1036 K | 0.00525 ± 0.0007 kPa
1037 K | 0.0049 ± 0.0008 kPa
1039 K | 0.00562 ± 0.00083 kPa
1040 K | 0.00692 ± 0.0011 kPa
1041 K | 0.00562 ± 0.00083 kPa
1046 K | 0.00676 ± 0.0011 kPa and 0.00575 ± 0.00058 kPa
1047 K | 0.00631 ± 0.00078 kPa
